The record followed here is patent US4851411A, “5-monoaryl as.-triazin-3-ones substituted in 2-position, and their use as medicaments” (Pierre Fabre Medicament, priority 1986, dated 1989).

Where a name gives a salt, the structure may show the parent alone. A value given as a limit tells only on which side of the number the result lay.

The nature of series [1]: Solubility. It is filed as physicochemical.
Series [2] in a line: Anxiolytic activity, group of tests (LAB-X elevated plus-maze, SKINNER, VOGEL). It is filed as in vivo, rat. To be noted: 30 mg/kg by mouth. The text has this: These compounds were also studied in order to test for anxiolytic activity using a group of tests
(Ref.: LAB-X: Sh. Pellow, Ph. Chopin, S. E. File and M. Briley--Validation of open:closed arm entries in an elevated plus-maze as a measure of anxiety in the rat (Journal of Neuroscience Methods, 14 (1983), 149-167)
SKINNER: GELLER and SEIFTER, Psychopharmacologia (1960) 1, 482-492

Series [3] concerns 5 HTP. In words: Potentialization of 5 HTP. The format is in vivo. An excerpt:
The tests used for the pharmacological screening are:
the potentialization of 5 HTP (Ref.: Christensen, A. V. et al., Eur. J. of Pharm. (1977), 41, 153-162)

A short description of series [4]: Toxicity study in the mouse, oral single dose (LD50). The format is in vivo. To be noted: for toxicity: summary in conclusion. As for the experimental part:
The toxicity study was carried out in the conventional mouse, weighing about 20 g.
The substances were administered orally in a single dose of 300 and 1000 mg/kg respectively. At these doses we were not able to determine the LD50 's which are higher >1000 mg/kg.

Broadly, the ED50 is the dose at which the effect has come halfway, by size or by number of responders. Lower therefore signals greater potency. On to `COc1ccc(-c2cnn(C(C)C(C)=O)c(=O)n2)cc1` (stereo not drawn) [Example 4, 2-alpha-methylacetonyl 3-oxo 5-p-methoxyphenyl as.-triazine], for which, in series [1], the solubility in chloroform result is given as “Soluble” and the “solubility in methylene chloride” value is “Soluble”. The solubility in water result in series [1] (water) was “insoluble”. Moreover, the anxiolytic activity result in series [2] is given as “significant results”. The same molecule displayed an ED50 in series [3] of 35 mg/kg. Besides, the toxicity entry in series [4] is given as “very low toxicity”.

The term LD50 denotes the dose at which mortality reaches 50%. High values mean a less toxic substance, low ones a more toxic substance. Regarding `COc1ccc(-c2cnn(CC(C)=O)c(=O)n2)cc1` [Example 1, 2-acetonyl 3-oxo 5-p-methoxyphenyl ax.-triazine], the anxiolytic activity result in series [2] is given as “significant results”. This molecule also displayed a 50% effective dose (ED50) in series [3] of 25 mg/kg. Further, in series [4] (in vivo, mouse, oral, single dose), the LD50 is over 3000 mg/kg. Besides, the toxicity result in series [4] is given as “very low toxicity”.

On to `COc1ccc(-c2cnn(CC(N)=O)c(=O)n2)cc1` [Example 32, 2-N-acetamido 3-oxo 5-p-methoxyphenyl as.-triazine], for which, in series [1], the solubility in alcohols entry is given as “Insoluble”, the solubility in chloroform entry was “Insoluble” and the solubility in ether entry is “Insoluble”. Moreover, the solubility in water result in series [1] (water) is on record as “Insoluble”. In series [3], this molecule showed an ED50 of 20 mg/kg. Besides, in series [4], the toxicity result is recorded as “very low toxicity”.

As for `Cc1ccc(-c2cnn(CCCCN3CCN(c4cccc(Cl)c4)CC3)c(=O)n2)cc1` [Example 13, 2-N-δ butyl (m-chlorophenyl piperazine) 3-oxo 5-p-methylphenyl as.-triazine], in series [1] (in the hot), the “solubility in alcohols in the hot” value was “Soluble” and the “solubility in aqueous dilute acids in the hot” value is “Soluble”. Besides, in series [1], the solubility in chloroform result was “Soluble”, the solubility in ether entry was “insoluble” and the “solubility in methylene chloride” value was “Soluble”. In series [1] (water), the solubility in water result is on record as “insoluble”.

With `Cc1ccc(-c2cnn(CCCN3CCN(c4cccc(Cl)c4)CC3)c(=O)n2)cc1` [Example 14, 2-γ(m-chlorophenylpiperazine)-propyl 3-oxo 5-p-methylphenyl as.-triazine hydrochloride], in series [1], the solubility in chloroform entry is “Soluble”, the solubility in ether entry was “insoluble” and the “solubility in methylene chloride” value was “Soluble”. In addition, the solubility in water entry in series [1] (water) was “insoluble”.

As to `COc1ccc(-c2cnn(C(CCO)C(=O)O)c(=O)n2)cc1` (stereo not drawn) [Example 18, 2-[3-(3-carboxy 1-propanol)] 3-oxo 5-p-methoxyphenyl as.-triazine], in series [1], the solubility in alcohols entry is given as “rather soluble”, the solubility in chloroform result is recorded as “Poorly soluble” and the “solubility in methylene chloride” value is given as “Poorly soluble”. The solubility in water result in series [1] (water) is given as “insoluble”.

As to `COc1ccccc1-c1cnn(CC(C)=O)c(=O)n1` [Example 23, 2-acetonyl 3-oxo 5-o-methoxyphenyl as.-triazine], in series [1], the solubility in chloroform entry is reported as “Soluble”, the solubility in ether entry is “insoluble” and the “solubility in methylene chloride” value is “Soluble”. In series [1] (water), the solubility in water result was “insoluble”. Further, the ED50 in series [3] is 50 mg/kg.

For `COc1ccc(-c2cnn(CCCN(C)C)c(=O)n2)cc1` [Example 17, 2-γ dimethylaminopropyl 3-oxo 5-p-methoxyphenyl as.-triazine], in series [1], the solubility in alcohols entry was “Soluble”, the “solubility in aqueous dilute acids” value is “Soluble”, the solubility in benzene entry is “Soluble” and the solubility in chloroform result was “Soluble”. Also, in series [1], the solubility in ether entry is given as “insoluble” and the “solubility in methylene chloride” value was “Soluble”. The solubility in water entry in series [1] (water) is on record as “insoluble”.

Turning to `COc1ccc(-c2cnn(C3CCOC3=O)c(=O)n2)cc1` (stereo not drawn) [Example 21, 2-γ-butyrolactone 3-oxo 5-p-methoxyphenyl as.-triazine], in series [1], the solubility in alcohols entry was “poorly soluble”, the solubility in benzene entry is “poorly soluble”, the solubility in chloroform result was “Soluble” and the “solubility in methylene chloride” value is “Soluble”. Also, in series [1] (water), the solubility in water result was “insoluble”. Also, the anxiolytic activity result in series [2] is listed as “significant results”. Moreover, it took a dose of 27 mg/kg to reach the 50% effect level in series [3] (ED50). Moreover, the toxicity result in series [4] is given as “very low toxicity”.

For `CC(C)C(=O)Cn1ncc(-c2ccccc2)nc1=O` [Example 22, 2-(3-methyl-2-one butyl) 5-phenyl as.-triazine], the “solubility in alcohols in the hot” value in series [1] (in the hot) is “soluble”. Besides, in series [1], the solubility in chloroform entry is “Soluble” and the “solubility in methylene chloride” value was “Soluble”. In series [1] (water), the solubility in water entry is given as “insoluble”. Further, in series [2], the anxiolytic activity result is reported as “significant results”.

Regarding `COc1ccc(-c2cnn(CCO)c(=O)n2)cc1` [Example 31, 2-ethanol 3-oxo 5-p-methoxyphenyl as.-triazine], in series [1], the solubility in benzene result is “insoluble”, the solubility in chloroform result is “poorly soluble”, the solubility in ether entry is listed as “insoluble” and the “solubility in methylene chloride” value is “rather soluble”. The “solubility in water in the hot” value in series [1] (water, in the hot) is “Soluble”.

For `COc1ccc(C2C=NN(CCCN3CCN(c4cccc(Cl)c4)CC3)C(=O)N2)cc1` (stereo not drawn) [Example 12, 2-N-γ propyl(m-chlorophenylpiperazine) 3-oxo 4,5-dihydro 5-p-methoxyphenyl as.-triazine], in series [1] (in the hot), the “solubility in alcohols in the hot” value is on record as “Soluble” and the “solubility in aqueous dilute acids in the hot” value is reported as “Soluble”. In series [1], the solubility in chloroform result is on record as “Soluble”, the solubility in ether result was “insoluble” and the “solubility in methylene chloride” value is given as “Soluble”. Also, the solubility in water result in series [1] (water) is “insoluble”.

As to `CC(=O)COc1ccc(-c2cnn(C)c(=O)n2)cc1` [Example 9, 2-methyl 3-oxo 5-p-acetonoxyphenyl as.-triazine], in series [1], the “solubility in aqueous dilute acids” value was “Soluble”, the solubility in chloroform entry is “insoluble” and the “solubility in methylene chloride” value is on record as “Soluble”. Besides, in series [1] (water), the solubility in water result is given as “insoluble”. Further, in series [2], the anxiolytic activity entry was “significant results”. Besides, the ED50 in series [3] worked out at 40 mg/kg.

On to `COc1ccc(-c2cnn(CC(=O)c3ccc(Cl)cc3Cl)c(=O)n2)cc1` [Example 39, 2-(dichloro-2,4 phenacyl) 3-oxo 5-p.methoxyphenyl as triazine], for which the “solubility in acetic acid” value in series [1] (acetic acid) was “Soluble”. Also, the solubility in alcohols entry in series [1] is recorded as “Insoluble”. The solubility in water result in series [1] (water) is on record as “Insoluble”.
